According to patent US12673050B2, “Compositions and their use for the treatment of A1-antitrypsin deficiency” (Centessa Pharmaceuticals (UK) Limited, priority 2021, dated 2026):

Legend:
[1] = target: cardiac potassium (hERG) channels (Homo sapiens, UniProt Q12809); assay: hERG channel inhibition, Patchliner automated patch clamp; format: cell-based; settings: 6-point curve, maximum 100 μM
Method: (§1) (S)-1-((2-(trifluoromethyl)phenyl)sulfonyl)piperidine-3-carboxylic acid was tested for inhibition of cardiac potassium (hERG) channels using the Patchliner automated patch clamp. 6-Point concentration-response curves were generated using half-log serial dilutions from a maximum final test concentration of 100 μM. IC50 values were obtained from a 4-parameter logistic fit of the concentration-response data. […] Reference compound values were consistent with those presented in the literature (Elkins et al., 2013 J. Pharm. Tox. Meth. 68:11-122).

hERG = hERG (Homo sapiens, UniProt Q12809); assay: as above; format: cell-based; settings: human; at 100 μM
hERG, sequence (Q12809 whole entry): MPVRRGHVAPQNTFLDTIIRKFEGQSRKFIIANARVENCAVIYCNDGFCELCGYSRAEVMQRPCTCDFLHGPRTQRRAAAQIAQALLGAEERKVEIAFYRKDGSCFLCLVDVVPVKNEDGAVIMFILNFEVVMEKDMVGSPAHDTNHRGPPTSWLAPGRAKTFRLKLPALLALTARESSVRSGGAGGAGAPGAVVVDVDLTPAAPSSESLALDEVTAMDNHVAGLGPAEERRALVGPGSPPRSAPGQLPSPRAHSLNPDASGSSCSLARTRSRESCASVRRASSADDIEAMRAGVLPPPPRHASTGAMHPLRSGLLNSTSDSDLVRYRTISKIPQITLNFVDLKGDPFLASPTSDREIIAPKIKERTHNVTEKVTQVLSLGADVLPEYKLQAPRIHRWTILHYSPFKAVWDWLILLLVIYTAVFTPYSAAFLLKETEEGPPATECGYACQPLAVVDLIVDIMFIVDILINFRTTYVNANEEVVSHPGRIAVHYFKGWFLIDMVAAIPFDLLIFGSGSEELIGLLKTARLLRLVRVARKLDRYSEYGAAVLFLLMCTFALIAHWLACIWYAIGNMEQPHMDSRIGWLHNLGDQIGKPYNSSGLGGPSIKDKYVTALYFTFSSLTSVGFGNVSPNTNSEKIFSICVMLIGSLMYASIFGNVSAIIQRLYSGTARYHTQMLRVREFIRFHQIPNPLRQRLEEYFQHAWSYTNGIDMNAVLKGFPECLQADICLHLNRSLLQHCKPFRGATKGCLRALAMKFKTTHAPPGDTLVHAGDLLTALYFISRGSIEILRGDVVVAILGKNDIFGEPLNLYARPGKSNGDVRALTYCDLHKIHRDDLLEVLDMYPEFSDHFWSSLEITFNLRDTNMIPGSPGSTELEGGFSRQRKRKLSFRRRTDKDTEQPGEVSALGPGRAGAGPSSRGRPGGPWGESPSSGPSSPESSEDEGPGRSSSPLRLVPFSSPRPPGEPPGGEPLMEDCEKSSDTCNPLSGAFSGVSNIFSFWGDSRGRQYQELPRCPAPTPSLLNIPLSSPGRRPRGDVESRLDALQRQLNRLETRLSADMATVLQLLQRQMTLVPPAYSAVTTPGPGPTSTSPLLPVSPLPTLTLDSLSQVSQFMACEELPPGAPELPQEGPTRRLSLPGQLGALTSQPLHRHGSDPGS
Method: as §1

human Z A1AT = human Z A1AT (Homo sapiens, UniProt P01009, E366K); assay: Circulating human Z A1AT levels in huZ mice; format: in vivo, mouse; parameters: from tissue; host or cells: huZ transgenic mice (line Z11.03, C57Bl/6); expressed in liver, measured in plasma; settings: huZ mice, 5, 15 or 50 mg/kg twice a day by oral gavage for 14 days, plasma days 12-14
human Z A1AT, sequence (P01009 25-418 E366K): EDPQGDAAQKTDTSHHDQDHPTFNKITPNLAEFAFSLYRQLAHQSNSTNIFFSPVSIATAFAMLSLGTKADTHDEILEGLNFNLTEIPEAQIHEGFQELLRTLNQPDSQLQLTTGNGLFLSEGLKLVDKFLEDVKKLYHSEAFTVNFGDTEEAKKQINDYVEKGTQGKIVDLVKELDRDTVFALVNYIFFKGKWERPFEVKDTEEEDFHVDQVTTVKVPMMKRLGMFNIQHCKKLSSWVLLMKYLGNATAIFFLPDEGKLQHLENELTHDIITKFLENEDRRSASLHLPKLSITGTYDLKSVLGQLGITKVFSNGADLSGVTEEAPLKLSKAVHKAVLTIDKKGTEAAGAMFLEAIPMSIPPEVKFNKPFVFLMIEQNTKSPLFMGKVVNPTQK
Text: The huZ mouse (also referred to as the PiZZ mouse) is a transgenic mouse strain that contains multiple copies of the Z variant of the human A1AT gene, developed by two separate groups (Dycaico et al (Science (1988) 242:1409-12) and Carlson et al (J. Clin Invest (1989) 83:1183-90)). HuZ mice are on a C57Bl/6 background and express the human Z A1AT protein in liver tissue. The mice used in this study are from the progeny of Carlson and colleagues (transgenic line Z11.03). […]
HuZ mice (n=4/group: male or female) with basal human A1AT plasma levels of between 200-600 μg/ml were treated with either vehicle or (S)-1-((2-(trifluoromethyl)phenyl)sulfonyl)piperidine-3-carboxylic acid at 5, 15 or 50 mg/kg twice a day by oral gavage for 14 consecutive days. […] Human A1AT levels in mouse plasma samples were measured by ELISA (Human Serpin A1/α1 antitrypsin duo set ELISA, R& D Systems, DY1268) per manufacturer's instructions.
Briefly, a 96 well plate was coated with human A1AT capture antibody overnight at room temperature (1:180 dilution from stock, 100 μl final volume/well). […] After which, 50 μl stop solution (2M H2SO4) was added and optical density (OD) of each well was read at 450 nm with 570 nm blank subtracted from each well using a microplate reader. […]

cardiac potassium (hERG) channels, sequence (Q12809 whole entry): as the sequence (Q12809 whole entry) above

O=C(O)[C@H]1CCCN(S(=O)(=O)c2ccccc2C(F)(F)F)C1 [(S)-1-((2-(Trifluoromethyl)phenyl)sulfonyl)piperidine-3-carboxylic acid]
IC50 [1]: > 100 µM
inhibition at 100 µM (hERG): 7%
circulating human Z A1AT compared to baseline levels (human Z A1AT): stimulates secretion of human Z A1AT compared to baseline levels in huZ mice in a dose dependent manner
